Reference: patent publication US10065972B2, “Bicyclic or tricyclic heterocyclic compound” (MITSUBISHI TANABE PHARMA CORPORATION, priority 2014, dated 2018)
pIC50: −log10 of the molar value.

Target: human recombinant KAT-II (Homo sapiens (Human), UniProt Q8N5Z0)
Experiment: KAT-II inhibitory test
Format: biochemical
Conditions: 3.0 μmol/L kynurenine, 37° C., 1 hr, pH 8.0; kynurenic acid quantified by HPLC
Outline: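 Kynurenic acid formation was measured by HPLC fluorescence (354 nm excitation, 460 nm emission) against an external standard curve. The substrate was 3.0 μmol/L kynurenine with 10 μmol/L pyridoxal phosphate, at pH 8.0 Tris-acetate, 37 °C for 1 hr, using 2.0 ng/μL amylose-purified N-terminal His/MBP-tagged recombinant enzyme. Duplicate measurements were made per concentration.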

Sequence of human recombinant KAT-II (Q8N5Z0 30-425): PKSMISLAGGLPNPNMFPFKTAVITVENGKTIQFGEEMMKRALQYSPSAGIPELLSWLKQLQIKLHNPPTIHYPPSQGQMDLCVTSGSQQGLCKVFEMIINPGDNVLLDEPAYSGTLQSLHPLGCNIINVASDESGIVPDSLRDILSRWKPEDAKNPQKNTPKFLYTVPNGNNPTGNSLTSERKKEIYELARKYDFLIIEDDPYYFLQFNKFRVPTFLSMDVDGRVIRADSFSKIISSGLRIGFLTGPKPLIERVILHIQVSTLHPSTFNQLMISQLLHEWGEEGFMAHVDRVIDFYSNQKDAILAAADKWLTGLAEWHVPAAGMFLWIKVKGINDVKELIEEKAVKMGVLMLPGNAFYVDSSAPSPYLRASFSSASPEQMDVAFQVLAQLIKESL

SMILES | pIC50
CCn1nc(C2CC2)c2sc(N3CCC[C@@H]3C(=O)NCc3ccccc3)nc2c1=O [Example 614, (R)-N-benzyl-1-(7-cyclopropyl-5-ethyl-4-oxo-4,5-dihydro[1,3]thiazolo[4,5-d]pyridazin-2-yl)pyrrolidine-2-carboxamide] | 7.80
Cc1nn(C2CCCCC2)c(=O)c2nc(N3CCC[C@@H]3C(=O)NCc3ccccc3)sc12 [Example 616, (R)-N-benzyl-1-(5-cyclohexyl-7-methyl-4-oxo-4,5-dihydro[1,3]thiazolo[4,5-d]pyridazin-2-yl)pyrrolidine-2-carboxamide] | 7.14
O=C(NCc1ccccc1)[C@H]1CCCN1c1nc2c(=O)[nH]cc(C(F)(F)F)c2s1 [Example 617, (R)-N-benzyl-1-(4-oxo-7-trifluoromethyl-4,5-dihydro[1,3]thiazolo[4,5-c]pyridin-2-yl)pyrrolidine-2-carboxamide] | 6.62
O=C(NCc1ccccc1)[C@H]1CCCN1c1nc2c(=O)[nH]c(-c3ccccc3F)c(Cl)c2s1 [Example 624, (R)-N-benzyl-1-[7-chloro-6-(2-fluorophenyl)-4-oxo-4,5-dihydro[1,3]thiazolo[4,5-c]pyridin-2-yl]pyrrolidine-2-carboxamide] | 7.82
CC(C)(F)c1[nH]c(=O)c2nc(N3CCC[C@@H]3C(=O)NCc3ccccc3)sc2c1Cl [Example 626, (R)-N-benzyl-1-[7-chloro-6-(2-fluoropropan-2-yl)-4-oxo-4,5-dihydro[1,3]thiazolo[4,5-c]pyridin-2-yl]pyrrolidine-2-carboxamide] | 7.82
CCCc1cc(=O)n2nc(N3CCCC[C@@H]3C(=O)NCc3ccccc3)sc2n1 [Example 635, (R)-N-benzyl-1-(5-oxo-7-propyl-5H-[1,3,4]thiadiazolo[3,2-a]pyrimidin-2-yl) piperidine-2-carboxamide] | 6.01
Cc1cc(=O)n2nc(N3CCC[C@@H]3C(=O)NC(C)(C)c3ccccc3)sc2n1 [Example 636, (R)-1-(7-methyl-5-oxo-5H-[1,3,4]thiadiazolo[3,2-a]pyrimidin-2-yl)-N-(1-methyl-1-phenylethyl)pyrrolidine-2-carboxamide] | 5.82
O=C(NCc1ccccc1)[C@H]1CCCN1c1nn2c(=O)cc(-c3ccccc3)nc2s1 [Example 638, (R)-N-benzyl-1-(5-oxo-7-phenyl-5H-[1,3,4]thiadiazolo[3,2-a]pyrimidin-2-yl)pyrrolidine-2-carboxamide] | 7.54
Cc1nc2sc(N3CCC[C@@H]3C(=O)NCc3ccccc3)nn2c(=O)c1-c1ccccc1 [Example 648, (R)-N-benzyl-1-(7-methyl-5-oxo-6-phenyl-5H-[1,3,4]thiadiazolo[3,2-a]pyrimidin-2-yl)pyrrolidine-2-carboxamide] | 7.34
CCc1nc2sc(N3CC(F)(F)C[C@@H]3C(=O)NCc3ccccc3)nn2c(=O)c1F [Example 650, (R)-N-benzyl-1-(7-ethyl-6-fluoro-5-oxo-5H-[1,3,4]thiadiazolo[3,2-a]pyrimidin-2-yl)-4,4-difluoropyrrolidine-2-carboxamide] | 5.66
O=C(NC1(c2ccccc2)CC1)[C@H]1CCCN1c1nn2c(=O)c3ccccc3nc2s1 [Example 655, (R)-1-(5-oxo-5H-[1,3,4]thiadiazolo[2,3-b]quinazolin-2-yl)-N-(1-phenylcyclopropyl)pyrrolidine-2-carboxamide] | 7.54
Cc1cc2c(=O)n3nc(N4CCC[C@@H]4C(=O)NCc4ccccc4)sc3nc2s1 [Example 656, (R)-N-benzyl-1-(6-methyl-8-oxo-8H-[1,3,4]thiadiazolo[3,2-a]thieno[2,3-d]pyrimidin-2-yl)pyrrolidine-2-carboxamide] | 7.36
CCc1nc2sc(N3CCC[C@@H]3C(=O)NCc3cc(C)ccn3)nn2c(=O)c1F [Example 664, (R)-1-(7-ethyl-6-fluoro-5-oxo-5H-[1,3,4]thiadiazolo[3,2-a]pyrimidin-2-yl)-N-[(4-methylpyridin-2-yl)methyl]pyrrolidine-2-carboxamide] | 6.25
CCc1nc2sc(N3CCC[C@@H]3C(=O)NCc3cnc(C)cn3)nn2c(=O)c1F [Example 685, (R)-1-(7-ethyl-6-fluoro-5-oxo-5H-[1,3,4]thiadiazolo[3,2-a]pyrimidin-2-yl)-N-[(5-methylpyrazin-2-yl)methyl]pyrrolidine-2-carboxamide] | 5.66
CCc1nc2sc(N3CCC[C@@H]3C(=O)NCc3nnc4ccccn34)nn2c(=O)c1F [Example 686, (R)-1-(7-ethyl-6-fluoro-5-oxo-5H-[1,3,4]thiadiazolo[3,2-a]pyrimidin-2-yl)-N-[([1,2,4]triazolo[4,3-a]pyridin-3-yl)methyl]pyrrolidine-2-carboxamide] | 4.49
CCc1cc(=O)n2nc(N3CCC[C@@H]3C(=O)NCc3ccccc3)sc2c1 [Example 699, (R)-N-benzyl-1-(7-ethyl-5-oxo-5H-[1,3,4]thiadiazolo[3,2-a]pyridin-2-yl)pyrrolidine-2-carboxamide] | 6.64
CCc1nc2ccc(N3CCC[C@@H]3C(=O)NCc3ccccc3)nc2c(=O)n1C [Example 703, (R)-N-benzyl-1-(2-ethyl-3-methyl-4-oxo-3,4-dihydropyrido[3,2-d]pyrimidin-6-yl)pyrrolidine-2-carboxamide] | 6.96
Cc1nc2ccc(N3CCC[C@@H]3C(=O)NCc3ccccc3)nc2c(=O)n1CC(F)(F)F [Example 706, (R)-N-benzyl-1-[2-methyl-4-oxo-3-(2,2,2-trifluoroethyl)-3,4-dihydropyrido[3,2-d]pyrimidin-6-yl]pyrrolidine-2-carboxamide] | 6.77

Continued, values first:

pIC50 | SMILES
7.66 | O=C(NCc1ccccc1)[C@H]1CCCN1c1nc2c(=O)[nH]c(C3CC3)c(Cl)c2s1 [Example 623, (R)-N-benzyl-1-(7-chloro-6-cyclopropyl-4-oxo-4,5-dihydro[1,3]thiazolo[4,5-c]pyridin-2-yl)pyrrolidine-2-carboxamide]
7.33 | CCOC1(c2cc3sc(N4CCC[C@@H]4C(=O)NCc4ccccc4)nc3c(=O)[nH]2)CC1 [Example 629, (R)-N-benzyl-1-[6-(1-ethoxycyclopropyl)-4-oxo-4,5-dihydro[1,3]thiazolo[4,5-c]pyridin-2-yl]pyrrolidine-2-carboxamide]
7.26 | Cn1c(C(F)(F)F)cc2sc(N3CCC[C@@H]3C(=O)NCc3ccccc3)nc2c1=O [Example 631, (R)-N-benzyl-1-(5-methyl-4-oxo-6-trifluoromethyl-4,5-dihydro[1,3]thiazolo[4,5-c]pyridin-2-yl)pyrrolidine-2-carboxamide]
7.31 | O=C(NCc1ccccc1)[C@H]1CCCN1c1nn2c(=O)c3c(nc2s1)CCCC3 [Example 639, (R)-N-benzyl-1-(5-oxo-6,7,8,9-tetrahydro-5H-[1,3,4]thiadiazolo[2,3-b]quinazolin-2-yl)pyrrolidine-2-carboxamide]
7.11 | O=C(NCc1ccccc1)[C@H]1CCCN1c1nn2c(=O)cc(C(F)(F)F)nc2s1 [Example 642, (R)-N-benzyl-1-(5-oxo-7-trifluoromethyl-5H-[1,3,4]thiadiazolo[3,2-a]pyrimidin-2-yl)pyrrolidine-2-carboxamide]
5.80 | CCc1cc(=O)n2nc(N3CCOC[C@@H]3C(=O)NCc3ccccc3)sc2n1 [Example 645, (R)-N-benzyl-4-(7-ethyl-5-oxo-5H-[1,3,4]thiadiazolo[3,2-a]pyrimidin-2-yl)morpholine-3-carboxamide]
7.24 | Cc1nc2sc(N3CCC[C@@H]3C(=O)NCc3ccccc3)nn2c(=O)c1C(C)C [Example 647, (R)-N-benzyl-1-[7-methyl-5-oxo-6-(propan-2-yl)-5H-[1,3,4]thiadiazolo[3,2-a]pyrimidin-2-yl]pyrrolidine-2-carboxamide]
6.72 | CC(C)c1cc(=O)n2nc(N3CCC[C@@H]3C(=O)NCc3ccccn3)sc2n1 [Example 653, (R)-1-[5-oxo-7-(propan-2-yl)-5H-[1,3,4]thiadiazolo[3,2-a]pyrimidin-2-yl]-N-[(pyridin-2-yl)methyl]pyrrolidine-2-carboxamide]
7.72 | CCc1nc2sc(N3CCC[C@@H]3C(=O)NCc3ccccc3Cl)nn2c(=O)c1F [Example 678, (R)-N-(2-chlorobenzyl)-1-(7-ethyl-6-fluoro-5-oxo-5H-[1,3,4]thiadiazolo[3,2-a]pyrimidin-2-yl)pyrrolidine-2-carboxamide]
4.96 | CCc1nc2sc(N3CCC[C@@H]3C(=O)NCc3ncccn3)nn2c(=O)c1F [Example 684, (R)-1-(7-ethyl-6-fluoro-5-oxo-5H-[1,3,4]thiadiazolo[3,2-a]pyrimidin-2-yl)-N-[(pyrimidin-2-yl)methyl]pyrrolidine-2-carboxamide]
7.54 | CCc1nc2sc(N3CCC[C@@H]3C(=O)NCc3ccc(Cl)cc3Cl)nn2c(=O)c1F [Example 688, (R)-N-(2,4-dichlorobenzyl)-1-(7-ethyl-6-fluoro-5-oxo-5H-[1,3,4]thiadiazolo[3,2-a]pyrimidin-2-yl)pyrrolidine-2-carboxamide]
7.17 | Cc1nc2sc(N3CCC[C@@H]3C(=O)NCc3ccccc3)nn2c(=O)c1C1=CCOCC1 [Example 698, (R)-N-benzyl-1-[6-(3,6-dihydro-2H-pyran-4-yl)-7-methyl-5-oxo-5H-[1,3,4]thiadiazolo[3,2-a]pyrimidin-2-yl]pyrrolidine-2-carboxamide]
7.30 | CCc1c(Cl)c(=O)n2nc(N3CCC[C@@H]3C(=O)NCc3ccccc3)sc2c1Cl [Example 701, (R)-N-benzyl-1-(6,8-dichloro-7-ethyl-5-oxo-5H-[1,3,4]thiadiazolo[3,2-a]pyridin-2-yl)pyrrolidine-2-carboxamide]
6.17 | Cn1c(C(F)(F)F)nc2ccc(N3CCC[C@@H]3C(=O)NCc3ccccc3)nc2c1=O [Example 707, (R)-N-benzyl-1-(3-methyl-4-oxo-2-trifluoromethyl-3,4-dihydropyrido[3,2-d]pyrimidin-6-yl)pyrrolidine-2-carboxamide]
6.72 | O=C(NCc1ccccc1)[C@H]1CCCN1c1ccc2nc(C3(Cl)CC3)[nH]c(=O)c2n1 [Example 711, (R)-N-benzyl-1-[2-(1-chlorocyclopropyl)-4-oxo-3,4-dihydropyrido[3,2-d]pyrimidin-6-yl]pyrrolidine-2-carboxamide]
